Experiments:
[1] = molecular target: T1, Cholecystokinin receptor type A (Homo sapiens, UniProt P32238)
T1 sequence (P32238 whole entry): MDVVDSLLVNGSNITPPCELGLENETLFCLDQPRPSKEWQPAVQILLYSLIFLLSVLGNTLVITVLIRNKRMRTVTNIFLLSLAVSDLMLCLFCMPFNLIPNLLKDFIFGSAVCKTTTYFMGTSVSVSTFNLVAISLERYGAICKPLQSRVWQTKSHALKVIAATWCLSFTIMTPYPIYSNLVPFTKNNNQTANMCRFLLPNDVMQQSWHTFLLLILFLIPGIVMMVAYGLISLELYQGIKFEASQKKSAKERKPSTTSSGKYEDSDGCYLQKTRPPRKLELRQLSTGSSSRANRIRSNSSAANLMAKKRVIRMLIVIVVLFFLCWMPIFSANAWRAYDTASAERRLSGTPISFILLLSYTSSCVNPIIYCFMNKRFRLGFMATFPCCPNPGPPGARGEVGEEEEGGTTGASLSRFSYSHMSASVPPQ

[2] = molecular target: T2, Prostaglandin G/H synthase 1 (Rattus norvegicus, UniProt Q63921); format: functional
T2 sequence (Q63921 whole entry): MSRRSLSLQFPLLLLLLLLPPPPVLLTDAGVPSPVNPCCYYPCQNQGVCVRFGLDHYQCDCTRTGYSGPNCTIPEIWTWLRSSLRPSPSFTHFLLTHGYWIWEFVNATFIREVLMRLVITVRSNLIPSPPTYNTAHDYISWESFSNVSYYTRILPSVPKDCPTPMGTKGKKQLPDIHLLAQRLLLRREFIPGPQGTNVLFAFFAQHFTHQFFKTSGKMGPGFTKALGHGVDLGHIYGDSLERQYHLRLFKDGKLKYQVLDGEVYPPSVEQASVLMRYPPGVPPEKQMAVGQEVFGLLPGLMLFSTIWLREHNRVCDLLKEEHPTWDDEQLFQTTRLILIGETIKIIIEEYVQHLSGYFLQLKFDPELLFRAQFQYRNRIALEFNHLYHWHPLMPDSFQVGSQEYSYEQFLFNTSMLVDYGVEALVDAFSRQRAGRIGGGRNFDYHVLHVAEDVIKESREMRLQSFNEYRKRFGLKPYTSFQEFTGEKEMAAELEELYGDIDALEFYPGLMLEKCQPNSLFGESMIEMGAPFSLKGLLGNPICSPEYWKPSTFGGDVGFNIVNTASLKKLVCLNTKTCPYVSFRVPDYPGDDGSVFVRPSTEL

[3] = molecular target: T3, Alpha-1A adrenergic receptor (Homo sapiens, UniProt P35348); format: functional, cell-based
T3 sequence (P35348 whole entry): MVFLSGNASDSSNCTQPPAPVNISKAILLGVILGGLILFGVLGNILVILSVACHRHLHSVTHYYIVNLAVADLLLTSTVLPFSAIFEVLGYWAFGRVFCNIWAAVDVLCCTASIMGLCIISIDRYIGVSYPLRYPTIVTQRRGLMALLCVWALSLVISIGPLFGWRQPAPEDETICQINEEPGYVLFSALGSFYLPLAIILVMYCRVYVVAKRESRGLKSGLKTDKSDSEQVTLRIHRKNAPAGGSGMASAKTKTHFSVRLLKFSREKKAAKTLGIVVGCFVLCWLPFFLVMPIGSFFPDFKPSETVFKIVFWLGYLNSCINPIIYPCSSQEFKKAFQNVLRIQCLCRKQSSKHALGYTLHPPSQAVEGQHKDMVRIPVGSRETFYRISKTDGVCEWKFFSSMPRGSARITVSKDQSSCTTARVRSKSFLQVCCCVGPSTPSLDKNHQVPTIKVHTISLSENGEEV

[4] = molecular target: Vasopressin V2 receptor (Homo sapiens, UniProt P30518)
[5] = molecular target: Histamine H2 receptor (Homo sapiens, UniProt P25021); format: functional, cell-based
[6] = molecular target: Gamma-aminobutyric acid receptor subunit alpha-1 (Rattus norvegicus, UniProt P62813); format: functional
[7] = molecular target: 5-hydroxytryptamine receptor 2B (Homo sapiens, UniProt P41595); format: functional, cell-based
[8] = molecular target: T4, 5-hydroxytryptamine receptor 1A (Homo sapiens, UniProt P08908); format: functional, cell-based
T4 sequence (P08908 whole entry): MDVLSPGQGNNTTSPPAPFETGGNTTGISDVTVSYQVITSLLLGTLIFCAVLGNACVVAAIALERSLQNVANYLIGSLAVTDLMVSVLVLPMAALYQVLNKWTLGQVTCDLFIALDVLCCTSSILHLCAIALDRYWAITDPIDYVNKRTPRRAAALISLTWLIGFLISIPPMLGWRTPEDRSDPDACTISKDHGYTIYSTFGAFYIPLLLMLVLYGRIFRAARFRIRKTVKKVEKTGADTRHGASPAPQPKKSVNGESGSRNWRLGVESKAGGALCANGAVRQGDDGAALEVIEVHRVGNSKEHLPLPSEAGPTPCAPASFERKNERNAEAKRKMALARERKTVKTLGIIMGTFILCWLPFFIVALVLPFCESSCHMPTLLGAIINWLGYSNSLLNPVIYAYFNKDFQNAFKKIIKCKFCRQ

[9] = molecular target: T5, Alpha-2A adrenergic receptor (Homo sapiens, UniProt P08913); format: functional, cell-based
T5 sequence (P08913 whole entry): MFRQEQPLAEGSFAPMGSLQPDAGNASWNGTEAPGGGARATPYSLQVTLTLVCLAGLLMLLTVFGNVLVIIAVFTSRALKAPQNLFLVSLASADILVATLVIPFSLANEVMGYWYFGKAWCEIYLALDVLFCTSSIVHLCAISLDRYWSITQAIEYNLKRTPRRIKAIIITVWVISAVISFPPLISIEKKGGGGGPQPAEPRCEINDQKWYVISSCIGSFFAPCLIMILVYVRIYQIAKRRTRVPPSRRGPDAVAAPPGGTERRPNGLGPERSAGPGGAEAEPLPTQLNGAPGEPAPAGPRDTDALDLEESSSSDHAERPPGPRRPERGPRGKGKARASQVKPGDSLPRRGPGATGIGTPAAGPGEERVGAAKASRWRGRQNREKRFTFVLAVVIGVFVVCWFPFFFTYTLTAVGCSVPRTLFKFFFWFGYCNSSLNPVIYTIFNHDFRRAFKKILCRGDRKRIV

[10] = molecular target: 5-hydroxytryptamine receptor 2A (Homo sapiens, UniProt P28223); format: functional, cell-based
[11] = molecular target: Beta-1 adrenergic receptor (Homo sapiens, UniProt P08588); format: functional
[12] = molecular target: cGMP-inhibited 3',5'-cyclic phosphodiesterase 3A (Homo sapiens, UniProt Q14432); format: functional
[13] = molecular target: Vasopressin V1a receptor (Homo sapiens, UniProt P37288)

Measured: AC50
Also: assay procedure not described here.

Chain of cGMP-inhibited 3',5'-cyclic phosphodiesterase 3A (Q14432 whole entry): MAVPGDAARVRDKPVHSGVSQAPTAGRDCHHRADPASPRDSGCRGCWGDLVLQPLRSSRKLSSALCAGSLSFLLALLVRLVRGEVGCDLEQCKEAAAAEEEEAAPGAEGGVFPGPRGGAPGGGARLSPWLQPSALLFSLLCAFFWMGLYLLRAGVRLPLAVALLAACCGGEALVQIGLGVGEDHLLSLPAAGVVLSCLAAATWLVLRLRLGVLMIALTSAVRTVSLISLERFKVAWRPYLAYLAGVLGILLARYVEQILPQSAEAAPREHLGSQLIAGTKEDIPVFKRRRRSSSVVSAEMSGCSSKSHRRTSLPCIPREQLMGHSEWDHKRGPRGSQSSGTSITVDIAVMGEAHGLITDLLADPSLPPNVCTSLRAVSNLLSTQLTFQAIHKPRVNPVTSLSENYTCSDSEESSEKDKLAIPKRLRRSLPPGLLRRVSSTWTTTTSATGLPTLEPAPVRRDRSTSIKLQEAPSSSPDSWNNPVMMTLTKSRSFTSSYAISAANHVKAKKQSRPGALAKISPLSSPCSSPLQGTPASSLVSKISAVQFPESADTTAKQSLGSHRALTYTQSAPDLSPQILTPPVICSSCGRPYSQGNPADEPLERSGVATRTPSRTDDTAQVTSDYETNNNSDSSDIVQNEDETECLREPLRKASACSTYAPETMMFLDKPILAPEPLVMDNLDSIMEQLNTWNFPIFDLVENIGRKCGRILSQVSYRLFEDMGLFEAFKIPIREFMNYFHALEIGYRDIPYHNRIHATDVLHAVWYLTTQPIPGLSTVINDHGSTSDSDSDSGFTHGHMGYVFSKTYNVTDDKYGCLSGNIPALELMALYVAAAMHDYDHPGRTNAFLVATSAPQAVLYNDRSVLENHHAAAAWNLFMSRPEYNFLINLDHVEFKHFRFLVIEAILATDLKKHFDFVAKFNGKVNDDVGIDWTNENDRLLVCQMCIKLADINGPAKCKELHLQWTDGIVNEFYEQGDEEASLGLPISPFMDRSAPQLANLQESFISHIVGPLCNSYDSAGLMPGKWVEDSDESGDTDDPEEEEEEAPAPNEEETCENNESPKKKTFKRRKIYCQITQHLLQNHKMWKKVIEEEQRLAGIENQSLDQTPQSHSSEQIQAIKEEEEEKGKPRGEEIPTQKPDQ
Chain of 5-hydroxytryptamine receptor 2B (P41595 whole entry): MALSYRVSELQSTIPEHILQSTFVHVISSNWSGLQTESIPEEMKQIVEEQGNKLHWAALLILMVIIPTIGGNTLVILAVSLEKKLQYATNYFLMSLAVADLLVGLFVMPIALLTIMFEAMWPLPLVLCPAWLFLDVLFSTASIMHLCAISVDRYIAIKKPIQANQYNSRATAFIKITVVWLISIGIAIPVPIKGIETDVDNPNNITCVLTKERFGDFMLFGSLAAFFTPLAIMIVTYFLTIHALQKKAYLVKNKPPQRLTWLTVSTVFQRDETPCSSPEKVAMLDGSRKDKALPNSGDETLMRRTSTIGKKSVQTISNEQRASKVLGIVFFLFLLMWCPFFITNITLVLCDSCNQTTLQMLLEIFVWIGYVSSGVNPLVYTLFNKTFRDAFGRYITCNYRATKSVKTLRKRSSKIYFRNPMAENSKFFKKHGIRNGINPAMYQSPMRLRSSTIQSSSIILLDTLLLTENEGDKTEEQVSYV
Chain of Beta-1 adrenergic receptor (P08588 whole entry): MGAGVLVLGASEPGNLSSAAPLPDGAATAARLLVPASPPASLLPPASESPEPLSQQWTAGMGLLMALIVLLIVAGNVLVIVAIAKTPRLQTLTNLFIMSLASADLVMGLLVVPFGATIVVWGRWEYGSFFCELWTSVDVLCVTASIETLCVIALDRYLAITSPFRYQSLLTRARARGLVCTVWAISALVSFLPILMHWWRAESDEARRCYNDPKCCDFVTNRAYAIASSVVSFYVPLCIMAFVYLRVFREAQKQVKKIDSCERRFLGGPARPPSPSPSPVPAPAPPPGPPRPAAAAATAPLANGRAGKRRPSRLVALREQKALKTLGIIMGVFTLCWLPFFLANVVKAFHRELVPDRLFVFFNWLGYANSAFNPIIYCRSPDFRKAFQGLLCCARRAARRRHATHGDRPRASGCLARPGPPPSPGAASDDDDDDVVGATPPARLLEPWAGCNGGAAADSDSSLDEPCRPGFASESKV
Chain of Gamma-aminobutyric acid receptor subunit alpha-1 (P62813 whole entry): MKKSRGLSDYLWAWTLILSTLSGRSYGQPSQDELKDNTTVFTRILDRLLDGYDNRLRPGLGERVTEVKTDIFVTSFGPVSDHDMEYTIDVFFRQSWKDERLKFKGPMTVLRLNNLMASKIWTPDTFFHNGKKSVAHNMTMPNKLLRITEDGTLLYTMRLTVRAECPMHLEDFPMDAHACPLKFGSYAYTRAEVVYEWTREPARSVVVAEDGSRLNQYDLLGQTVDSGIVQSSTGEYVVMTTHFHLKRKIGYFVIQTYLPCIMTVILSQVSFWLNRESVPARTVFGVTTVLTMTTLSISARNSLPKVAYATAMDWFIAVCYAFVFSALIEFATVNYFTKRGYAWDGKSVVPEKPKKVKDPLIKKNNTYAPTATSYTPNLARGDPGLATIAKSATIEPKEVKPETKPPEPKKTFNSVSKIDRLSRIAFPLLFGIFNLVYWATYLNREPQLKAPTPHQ
Chain of Vasopressin V2 receptor (P30518 whole entry): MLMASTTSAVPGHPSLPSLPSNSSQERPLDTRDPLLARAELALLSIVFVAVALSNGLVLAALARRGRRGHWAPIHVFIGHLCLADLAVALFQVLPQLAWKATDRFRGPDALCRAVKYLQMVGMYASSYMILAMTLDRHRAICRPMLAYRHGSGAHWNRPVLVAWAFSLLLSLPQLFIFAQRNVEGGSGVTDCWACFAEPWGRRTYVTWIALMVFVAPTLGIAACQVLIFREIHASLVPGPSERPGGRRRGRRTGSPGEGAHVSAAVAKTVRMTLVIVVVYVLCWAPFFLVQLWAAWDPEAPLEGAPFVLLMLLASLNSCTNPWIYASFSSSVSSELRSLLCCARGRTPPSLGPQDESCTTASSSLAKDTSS
Chain of Histamine H2 receptor (P25021 whole entry): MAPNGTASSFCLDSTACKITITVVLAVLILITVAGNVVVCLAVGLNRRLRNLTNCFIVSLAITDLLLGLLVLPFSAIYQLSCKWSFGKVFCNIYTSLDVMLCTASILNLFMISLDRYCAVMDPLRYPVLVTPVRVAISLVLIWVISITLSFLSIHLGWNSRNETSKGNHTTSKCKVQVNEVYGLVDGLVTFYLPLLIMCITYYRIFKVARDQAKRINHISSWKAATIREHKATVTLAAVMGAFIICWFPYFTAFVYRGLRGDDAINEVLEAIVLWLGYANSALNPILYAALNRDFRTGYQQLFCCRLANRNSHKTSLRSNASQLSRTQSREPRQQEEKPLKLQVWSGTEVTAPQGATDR
Chain of 5-hydroxytryptamine receptor 2A (P28223 whole entry): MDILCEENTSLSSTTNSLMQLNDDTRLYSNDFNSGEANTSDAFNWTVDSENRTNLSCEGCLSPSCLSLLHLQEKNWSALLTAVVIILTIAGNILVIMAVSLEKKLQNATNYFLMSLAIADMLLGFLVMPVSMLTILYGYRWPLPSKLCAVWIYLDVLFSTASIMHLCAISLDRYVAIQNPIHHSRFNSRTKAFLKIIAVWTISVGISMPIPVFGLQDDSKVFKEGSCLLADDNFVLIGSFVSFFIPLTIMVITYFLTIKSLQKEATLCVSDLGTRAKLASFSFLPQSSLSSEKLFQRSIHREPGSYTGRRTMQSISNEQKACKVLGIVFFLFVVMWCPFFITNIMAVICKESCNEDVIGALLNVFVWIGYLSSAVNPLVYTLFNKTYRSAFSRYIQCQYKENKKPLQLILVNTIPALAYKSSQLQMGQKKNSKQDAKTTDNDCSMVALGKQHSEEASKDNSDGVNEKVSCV
Chain of Vasopressin V1a receptor (P37288 whole entry): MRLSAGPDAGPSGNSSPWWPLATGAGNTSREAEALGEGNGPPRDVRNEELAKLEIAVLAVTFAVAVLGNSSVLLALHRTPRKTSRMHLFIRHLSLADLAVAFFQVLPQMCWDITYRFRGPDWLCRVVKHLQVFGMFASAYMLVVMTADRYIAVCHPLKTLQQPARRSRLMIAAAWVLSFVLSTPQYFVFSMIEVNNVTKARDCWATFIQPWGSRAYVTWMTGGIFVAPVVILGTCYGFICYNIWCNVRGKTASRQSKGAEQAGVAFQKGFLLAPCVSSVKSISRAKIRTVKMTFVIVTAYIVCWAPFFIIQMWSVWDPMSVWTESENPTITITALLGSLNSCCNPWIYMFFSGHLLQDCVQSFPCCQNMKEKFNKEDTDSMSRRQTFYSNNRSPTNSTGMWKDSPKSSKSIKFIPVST

C[C@]12CCC(=O)C=C1C=C[C@@H]1[C@@H]2CC[C@@]2(C)[C@H]1CC[C@@]21CCC(=O)O1 [CANRENONE]
> 30 µM: [1] | [2] | [3] | [4] | [5] | [6] | [7] | [8] | [9] | [10] | [11] | [12] | [13]

C[C@]12C=CC(=O)C=C1C(Cl)=C[C@@H]1[C@@H]2[C@@H](O)C[C@@]2(C)[C@H]1CC[C@]2(O)C(=O)CO [CLOPREDNOL]
> 30 µM: [1] | [2] | [3] | [4] | [5] | [6] | [7] | [8] | [9] | [10] | [11] | [12] | [13]

Oc1cc(Cl)ccc1Oc1ccc(Cl)cc1Cl [TRICLOSAN]
> 30 µM: [1] | [2] | [3] | [4] | [5] | [6] | [7] | [8] | [9] | [10] | [11] | [12] | [13]

From ChEMBL document CHEMBL5291721, “A preclinical secondary pharmacology resource illuminates target-adverse drug reaction associations of marketed drugs” (Nat Commun, 2023)
